{
  "source": "patent US12378190B2",
  "about": "“Two-component coating system” (COVESTRO (NETHERLANDS) B.V., priority 2020, dated 2025)",
  "key": {"[1]": {"tested_on": "Rtkn-GFP mouse embryonic stem (mES) reporter cell line", "test": "ToxTracker genotoxicity assay, Rtkn-GFP reporter induction", "procedure": "A 2 L four-necked flask equipped with a thermometer and overhead stirrer was charged with sodium lauryl sulphate (30% solids in water, 18.6 grams of solution) and demineralized water (711 grams). The reactor phase was placed under N2 atmosphere and heated to 82° C. A mixture of demineralized water (112 grams), sodium lauryl sulphate (30% solids in water, 37.2 grams of solution), methyl methacrylate (209.3 grams), n-butyl acrylate (453.56 grams) and methacrylic acid (34.88 grams) was placed in a large feeding funnel and emulsified with an overhead stirrer (monomer feed). Ammonium persulphate (1.75 grams) was dissolved in demineralized water (89.61 grams) and placed in a small feeding funnel (initiator feed). Ammonium persulphate (1.75 grams) was dissolved in demineralized water (10.5 grams), and this solution was added to the reactor phase. Immediately afterwards, 5% by volume of the monomer feed was added to the reactor phase. The reaction mixture then exothermed to 85° C. and was kept at 85° C. for 5 minutes. Then, the residual monomer feed and the initiator feed were fed to the reaction mixture over 90 minutes, maintaining a temperature of 85° C. After completion of the feeds, the monomer feed funnel was rinsed with demineralized water (18.9 grams) and reaction temperature maintained at 85° C. for 45 minutes. Subsequently, the mixture was cooled to room temperature and brought to pH=7.2 with ammonia solution (6.25 wt. % in demineralized water), and brought to 40% solids with further demineralized water. […] This methodology uses a two step-approach. […] Metabolic was evaluated by addition of S9 liver extract. […] Only GFP expression in intact single cells is determined. […] Components and Abbreviations Used: Dimethylformamide (CAS No. 68-12-2) was obtained from Acros Organics (a division of Thermo Fisher Scientific). […] IPDI (5-isocyanato-1-(isocyanatomethyl)-1,3,3-trimethylcyclohexane, Desmodur® I, isophorone diisocyanate, CAS No. 4098-71-9) was obtained from Covestro. Polyethylene Glycol Monomethyl Ether (CAS No. 9004-74-4) with a number average molecular weight of 1000 Da was obtained from Tokyo Chemical Industry Co., Ltd. Vestanat® T 1890/100, an isophorone diisocyanate based isocyanurate (CAS No. 67873-91-0) was obtained from Evonik. Desmodur® N3600 was obtained from Covestro. 1-methoxy-2-propanol acetate (propylene glycol methyl ether acetate, CAS No. 108-65-6) was obtained from Shell Chemicals. 1-(2-hydroxyethyl)ethyleneimine) (CAS No. 1072-52-2) was obtained from Tokyo Chemical Industry Co., Ltd. Jeffamine® XTJ-436 (CAS No. 118270-87-4) was obtained from Huntsman Bismuth neodecanoate (CAS No. 34364-26-6) obtained from TIB chemicals AG (Mannheim, Germany). Hydrazine (16% solution in water, CAS No. 302-01-2) was obtained from Honeywell. Dimethylol propionic acid (DMPA, CAS No. 4767-03-7) was obtained from Perstop Polyols. Triethylamine (TEA, CAS No. 121-44-8) was obtained from Arkema 1-propanol (CAS No. 71-23-8) was obtained from Sigma-Aldrich. Tin 2-ethylhexanoate (CAS No. 301-10-0) was obtained from Sigma-Aldrich. Dibutyltindilaurate (CAS No. 77-58-7) was obtained from Sigma-Aldrich. Tegomer® D3403 was obtained from Evonik. Polypropyleneglycol with a number average molecular weight of 1000 Da and with a number average molecular weight of 2000 Da was obtained from BASF. 3-Methyl-1-phenyl-2-phospholene-1-oxide (CAS No. 707-61-9) was obtained from Sigma-Aldrich. 1-Butanol (CAS No. 71-36-3) was obtained from Sigma-Aldrich. Sodium lauryl sulphate (30% solution in water, CAS No. 73296-89-6) was obtained from BASF. Methyl methacrylate (CAS No. 80-62-6) was obtained from Lucite Int. n-Butyl acrylate (CAS No. 141-32-2) was obtained from Dow Chemical. Methacrylic acid (CAS No. 79-41-4) was obtained from Lucite Int. Ammonium persulphate (CAS No. 7727-54-0) was obtained from United Initiators. Ammonia (25% solution in water, CAS No. 1336-21-6) was obtained from Merck"}, "[2]": {"tested_on": "Bscl2-GFP and Rtkn-GFP mES reporter cell lines", "test": "ToxTracker genotoxicity assay, overall conclusion", "details": "positive: >=2-fold induction; weakly positive: >1.5 and <2-fold; negative: <=[…] at 10, 25 and 50% cytotoxicity, with and without S9", "procedure": "A 2 L four-necked flask equipped with a thermometer and overhead stirrer was charged with sodium lauryl sulphate (30% solids in water, 18.6 grams of solution) and demineralized water (711 grams). The reactor phase was placed under N2 atmosphere and heated to 82° C. A mixture of demineralized water (112 grams), sodium lauryl sulphate (30% solids in water, 37.2 grams of solution), methyl methacrylate (209.3 grams), n-butyl acrylate (453.56 grams) and methacrylic acid (34.88 grams) was placed in a large feeding funnel and emulsified with an overhead stirrer (monomer feed). Ammonium persulphate (1.75 grams) was dissolved in demineralized water (89.61 grams) and placed in a small feeding funnel (initiator feed). Ammonium persulphate (1.75 grams) was dissolved in demineralized water (10.5 grams), and this solution was added to the reactor phase. Immediately afterwards, 5% by volume of the monomer feed was added to the reactor phase. The reaction mixture then exothermed to 85° C. and was kept at 85° C. for 5 minutes. Then, the residual monomer feed and the initiator feed were fed to the reaction mixture over 90 minutes, maintaining a temperature of 85° C. […] Metabolic was evaluated by addition of S9 liver extract. […] Only GFP expression in intact single cells is determined. […]"}},
  "data": [
    {"smiles": "O=C(NCCCCCCn1c(=O)n(CCCCCCNC(=O)OCCN2CC2)c(=O)n(CCCCCCNC(=O)OCCN2CC2)c1=O)OCCN1CC1", "note": "[compound 2]", "values": [
      {"measurement": "Rtkn induction level", "setting": "[1]; with S9 rat liver extract, 3 h exposure and 24 h recovery, at 10% cytotoxicity", "result": 2.0, "unit": "fold"},
      {"measurement": "Rtkn induction level", "setting": "[1]; with S9 rat liver extract, 3 h exposure and 24 h recovery, at 25% cytotoxicity", "result": 3.4, "unit": "fold"},
      {"measurement": "Rtkn induction level", "setting": "[1]; with S9 rat liver extract, 3 h exposure and 24 h recovery, at 50% cytotoxicity", "result": 3.0, "unit": "fold"},
      {"measurement": "Rtkn induction level", "setting": "[1]; without S9 rat liver extract, 24 h exposure, at 10% cytotoxicity", "result": 1.7, "unit": "fold"},
      {"measurement": "Rtkn induction level", "setting": "[1]; without S9 rat liver extract, 24 h exposure, at 25% cytotoxicity", "result": 2.4, "unit": "fold"},
      {"measurement": "Rtkn induction level", "setting": "[1]; without S9 rat liver extract, 24 h exposure, at 50% cytotoxicity", "result": 2.8, "unit": "fold"},
      {"measurement": "Genotoxicity test conclusion", "setting": "[2]", "result": "genotoxic"}
    ]},
    {"smiles": "O=C(CCN1CC1)OCC(CO)(COC(=O)CCN1CC1)COC(=O)CCN1CC1", "note": "[Comparative Example 3, pentaerythritol tris(3-(1-aziridinyl)propionate)]", "values": [
      {"measurement": "Genotoxicity test conclusion", "setting": "[2]", "result": "genotoxic"}
    ]}
  ]
}
